Test results published in BindingDB's records for patent US9718819 (Merck Sharp & Dohme, 2017).

molecular target: Gag-Pol polyprotein (Human immunodeficiency virus type 1 group M subtype B (isolate HXB2), UniProt P04585); assay: HIV-1 Reverse Transcriptase Inhibitory Assay; settings: pH 7.8; 25 °C
From the text: The heterodimeric nucleic acid substrate used in the HIV-1 RT polymerase reactions was generated by annealing the DNA primer, biotinylated pD500 (Sigma Aldrich, USA, 5′-biotin-ttg aaa tga ctg cgg tac ggc-3′), SEQ ID NO. 1 to the nucleotide RNA template t500 (derived from hepatitis C virus [HCV] sequence, IBA, Germany, 5′-GAGGUUCAGGUGGUUUCCACCGCAACACAAUCCUUCCUGGCGACCUGCGUCAACGGCGUGUGUUGGACCGUUUACCAUGGUGCUGGCUCAAAGACCUUAGCCGGCCCAAAGGGGCCAAUCACCCAGAUGUACACUAAUGUGGACCAGGACCUCGUCGGCUGGCAGGCGCCCCCCGGGGCGCGUUCCUUGACACCAUGCACCUGUGGCAGCUCAGACCUUUACUUGGUCACGAGACAUGCUGACGUCAUUCCGGUGCGCCGGCGGGGCGACAGUAGGGGGAGCCUGCUCUCCCCCAGGCCUGUCUCCUACUUGAAGGGCUCUUCGGGUGGUCCACUGCUCUGCCCUUCGGGGCACGCUGUGGGCAUCUUCCGGGCUGCCGUAUGCACCCGGGGGGUUGCGAAGGCGGUGGACUUUGUGCCCGUAGAGUCCAUGGAAACUACUAUGCGGUCUCCGGUCUUCACGGACAACUCAUCCCCCCCGGCCGUACCGCAGUCAUUUCAA-3′), SEQ ID NO 2). […] The mixture was then preincubated on an orbital shaker for 30 min at room temperature in microtiter plates (Costar 3365, Corning, USA). A polymerization reaction was initiated by the addition of RNA template/pD500 DNA primer hybrid (16.6 nM final of RNA/DNA hybrid) and dNTPs (2 μM dATP, dGTP, dCTP and 66.6 nM Ru-dUTP (Meso Scale Discovery, USA)). Plate was sealed and incubated for 5-10 min at room temperature on an orbital shaker. Plate was then incubated for 90 min at 37° C. and reactions quenched with 60 μl quenching buffer (50 mM EDTA, 0.7% BSA, 0.7% Tween-20, 0.017% sodium azide in PBS). The resulting solution was incubated at room temperature for an additional 5 min and then 50 μL was transferred to pre-blocked Avidin plates (L15AA, Meso Scale Discovery). Each well of Avidin plate was blocked for 1 h at room temperature with 100 μL 5% BSA in PBS. Blocking solution was removed by tapping vigorously on filter paper to remove all excess liquid. Reaction on pre-blocked avidin plate proceeded for 60 min at room temperature and then contents removed by tapping vigorously on filter paper to remove all excess liquid. After washing plate 3 times with 150 μL 1×PBS and blotting dry between cycles, 150 μL 1× Read Buffer T (4× Read Buffer T, Meso Scale Discovery) was added and incubated for 5 min at room temperature before counting on a Sector Imager […] (Meso Scale Discovery). Titration curves and IC50 values were calculated using a four parameter logisitc fit according to standard procedures. Briefly, % Inhibition=100×((sample raw value)−(mean value of the low control or 0% inhibition))/((mean value of wells representing 100% inhbition)−(mean value of 0% inhbition)). […]

First: COc1cc(-c2cc(Cn3cnc(C(F)(F)F)c(Oc4cc(Cl)cc(C#N)c4)c3=O)n[nH]c2=O)ccn1 [US9718819, 79]
Second: Cc1cncc(-c2cc(Cn3cnc(C(F)(F)F)c(Oc4cc(Cl)cc(C#N)c4)c3=O)n[nH]c2=O)c1 [US9718819, 80]
The IC50 of the first is 2.3-fold lower: 6 nM for the first, 14 nM for the second. The first is the more potent here.

Going from `N#Cc1cc(Cl)cc(Oc2c(C(F)(F)F)ncn(Cc3cc(-c4cn[nH]c4)n[nH]c3=O)c2=O)c1` [US9718819, 118] to `Cn1[nH]c(=O)c(Cn2cnc(C(F)(F)F)c(Oc3cc(Cl)cc(C#N)c3)c2=O)cc1=O` [US9718819, 127], the IC50 rises from 7 nM to 434 nM (62-fold).
